Data on 3 compounds can be found in article PMC9256790 (Molecular cancer therapeutics, 2022).

Data set [1] relates to MDA-MB-231 or MDA-MB-468 cells. In words: Colony formation assay. The following applies: 1 to 4 nM; both TNBC cell lines. It counts as cell-based, Human.
The test system of data set [2] is MDA-MB-231 cells. In words: Wound healing. The class given is cell-based, Human. Conditions: 4 nM, 24 h.
Data set [3] relates to MDA-MB-231 and MDA-MB-468 cells. In words: Cell cycle analysis. The class given is cell-based, Human. The following applies: 10 nM; 24 h.
Data set [4] relates to cHCI-10. In words: Cell proliferation. The class given is cell-based, Human. The following applies: for proliferation of cHCI-10 cells: 10 nM, 5 days of treatment.
Data set [5] concerns MDA-MB-231 cells. In words: Immunofluorescence staining of microtubules. It counts as cell-based, Human. The following applies: 24 h.
The subject of data set [6] is cHCI-2. In words: Cell proliferation. Conditions: for proliferation of cHCI-2 cells: 10 nM, 5 days of treatment. The class given is cell-based, Human.
The subject of data set [7] is orthotopic MDA-MB-231 xenografts. In words: Orthotopic MDA-MB-231 xenograft in comparison with CA4P. The class given is in vivo, mice.
Data set [8] has as its system Mia PaCa-2/ColxR. In words: Cell proliferation. It counts as cell-based. The following applies: Homo sapiens, MIA PaCa-2, read-out: Mean IC50 ± SEM.
Data set [9] concerns MDA-MB-231/TxR. In words: Cell proliferation. The class given is cell-based. Conditions: Homo sapiens, read-out: Mean IC50 ± SEM.
Data set [10] relates to MDA-MB-468. In words: Cell proliferation. The class given is cell-based. Conditions: Homo sapiens, MDA-MB-468, read-out: Mean IC50 ± SEM.
The subject of data set [11] is Mia PaCa-2. In words: Cell proliferation. The class given is cell-based. Conditions: Homo sapiens, MIA PaCa-2, read-out: Mean IC50 ± SEM.
The subject of data set [12] is MDA-MB-468/TxR. In words: Cell proliferation. The class given is cell-based. The following applies: Homo sapiens, MDA-MB-468, read-out: Mean IC50 ± SEM.
[13] abbreviates: Homo sapiens, 120 h, read-out: Mean IC50 ± SEM.

As for `COc1cc2c(c(OC)c1OC)-c1ccc(OC)c(=O)cc1[C@@H](NC(C)=O)CC2` [Colchicine], the colony formation result in data set [1] is “no effect”. Moreover, in [2], the wound closure entry was “closed similar to untreated control cells”. Besides, the cell cycle distribution result in data set [3] is on record as “little effect on cell cycle progression”. In addition, the “proliferation of cHCI-10 cells” value in data set [4] is “limited effects”. Also, the microtubule structure entry in data set [5] (2.5 nM) is “similarly organized and intact microtubule structures as untreated cells”; in [5] (5 nM, interphase), “disseminated and depolymerized microtubule arrangement”. Moreover, in data set [6], the “proliferation of cHCI-2 cells” value is “limited effects”.
As for `COc1ccc(/C=C\c2cc(OC)c(OC)c(OC)c2)cc1OP(=O)(O)O` [CA4P, fosbretabulin], the “average tumor volume vs vehicle” value in data set [7] (28 mg/kg (equivalent to 20 mg/kg CA4) IP 5 times/week) is “significantly reduced”. In addition, in data set [7] (28 mg/kg IP 5 times/week), the body weight result is reported as “no significant loss in body weight”.
As to `CC(=O)O[C@H]1C(=O)[C@@]2(C)[C@H]([C@H](OC(=O)c3ccccc3)[C@]3(O)C[C@H](OC(=O)[C@H](O)[C@@H](NC(=O)c4ccccc4)c4ccccc4)C(C)=C1C3(C)C)[C@]1(OC(C)=O)CO[C@@H]1C[C@@H]2O` [Paclitaxel], the half-inhibitory concentration (IC50) in data set [8] was 10.6 ± 1.1 nM; in [9], 112 ± 37.8 nM; in [4] (setting [13]) it was 43.6 ± 8.2 nM; in data set [10], 2 ± 0.2 nM; in data set [11] it was 5.5 ± 0.6 nM; in [6] (setting [13]), 12.7 ± 5.8 nM. Moreover, in data set [12], the IC50 was determined as 152 ± 23.8 nM. Further, in data set [1], the colony formation result is listed as “robustly inhibited colony formation”. Besides, in data set [3], the cell cycle distribution entry is “arrested the cells into the M phase and the subG1 phase”. Further, the “proliferation of cHCI-10 cells” value in data set [4] was “no activity”. Moreover, in data set [5] (2.5 nM or 5 nM, interphase and mitotic phase), the microtubule structure result was “condensed microtubules”. Further, the “proliferation of cHCI-2 cells” value in [6] is “reduced the proliferation”.

One may read the IC50 as the concentration that inhibits the measured activity by half.
